According to patent US20060263444A1, “Antimicrobial composition” (priority 2005, published 2006):
“And” between values parts separate entries of the source, which are not always exact repeats. Equal entries are not always repeated. Where two headings read alike, the source gives them in different places.

Tests used:
S. aureus [1] = assay type: cell-based
Method: (§1) Sequential dilutions of the above two stock solutions were then prepared also in sterile saline. A portion of 0.05 ml of each dilution was added to 0.95 ml of bacterial culture (trypticase soy broth containing 10^6 CFU/ml). […] The test cultures were incubated at 37° C. for 24 hr, the total viable bacteria were numerated by plate count on Trypticase® soy agar (BBL) containing inactivating agent. The plates were incubated at 37° C. for 48 hr and reported as colony forming unit/ml (CFU/ml).

E. coli [2] = assay: Viable plate count after 24 hr incubation in trypticase soy broth culture; assay type: cell-based
Method: as §1

C. albicans [3] = assay: Zone of inhibition assay of coated sutures; assay type: cell-based; details: coated suture; 0.5% in coating solution; 37° C. 48 hr
S. aureus [4] = assay: Zone of inhibition assay of coated sutures; assay type: cell-based, Staphylococcus aureus; details: coated 2-0 polyglactin 910 suture; 0.5% in coating solution; 37° C. 48 hr
Method: (§2) The coating solutions were made by dissolving a L(−) lactide/glycolide copolymer containing 65 mole % lactide and 35 mole % glycolide (4.5%) and calcium stearate (4.5%) in ethyl acetate. […] The sutures were hand coated by dipping into the coating solution containing antimicrobial composition and then air dried at room temperature for 8 hr. […] A Petri dish was inoculated with about 10^5 cfu/suture and a portion of 20 ml of TSA tempered at 47° C. was added into the Petri dish. The inoculum was mixed thoroughly with the medium and the suture was placed in the middle of the Petri dish. The inoculated Petri dishes were incubated at 37° C. for 48 hr and then the zone of inhibition was measured with a digital caliper.
(§3) The zone of inhibition assay was performed against S. aureus and E. coli over a two-day period.

E. coli [5] = assay: Zone of inhibition assay of coated sutures; assay type: cell-based; details: coated suture; 0.5% in coating solution; 37° C. 48 hr
Method: as §2, §3

[6] = test system: Staphylococcus aureus, E. coli and C. albicans; assay: Zone of inhibition assay of coated sutures, summary in text; assay type: cell-based; details: coated suture
Method: as §2, §3

[7] = rats; cited from earlier work
[8] = animals and humans; cited from earlier work
P. aeruginosa = assay: Viable plate count after 24 hr incubation in trypticase soy broth culture; assay type: cell-based
Method: as §1

E. faecium = assay: as above; assay type: cell-based
Method: as §1

C. albicans [9] = assay: as above; assay type: cell-based
Method: as §1

[10] = single agent 10 ppm, 37° C. 24 hr

Row | Structure (SMILES) | CFU/ml S. aureus (S. aureus [1]; Table 2, single agent 10 ppm) | CFU/ml S. aureus (S. aureus [1]; Table 2, single agent 20 ppm) | CFU/ml E. coli (E. coli [2]; Table 2, single agent 10 ppm) | CFU/ml E. coli (E. coli [2]; Table 2, single agent 20 ppm) | Zone of inhibition(mm) C. albicans (C. albicans [3]) [mm] | CFU/ml S. aureus (S. aureus [1]) | Zone of inhibition(mm) S. aureus (S. aureus [4]) [mm] | Zone of inhibition(mm) E. coli (E. coli [5]) [mm] | zone of inhibition [6] | absorption and metabolism [7] | toxicological finding [8] | reduction of viable bacteria compared to the control, P. aeruginosa (P. aeruginosa; alone at 10 ppm) | CFU/ml P. aeruginosa (P. aeruginosa; [10]) | reduction of viable bacteria compared to the control, E. coli (E. coli [2]) | CFU/ml E. coli (E. coli [2]; monohydrochloride) | reduction of viable bacteria compared to the control, E. faecium (E. faecium; alone at 10 ppm) [log] | CFU/ml E. faecium (E. faecium; [10]) | reduction of viable bacteria compared to the control, C. albicans (C. albicans [9]; alone at 10 ppm) [log] | CFU/ml C. albicans (C. albicans [9]; [10])
1 | O=[N+]([O-])[O-].[Ag+] [AgNO3, silver nitrate] | 9.3 × 10^8 CFU/ml | 2.2 × 10^8 CFU/ml | 1.2 × 10^9 CFU/ml | 1.0 × 10^8 CFU/ml | – | – | – | – | – | – | – | – | – | – | – | – | – | – | –
2 | CCCCCCCCCCCC(=O)N[C@@H](CCCN=C(N)N)C(=O)OCC.Cl [LAE, ethyl ester of the lauramide of the arginine monohydrochloride] | – | – | – | – | 0 | 6.4 × 10^8 CFU/ml | 0 | 0 | no zones of inhibition | fast absorption and metabolism into naturally-occurring amino acids and the lauric acid | completely harmless to animals and humans | no inhibition | 1.0 × 10^9 CFU/ml | no inhibition | 1.0 × 10^9 CFU/ml and 1.1 × 10^9 CFU/ml | < 2 | 5.0 × 10^7 CFU/ml | < 2 | 6.0 × 10^7 CFU/ml
